Assays:
[1] = molecular target: T1, human RORγt (Ligand Binding Domain) (Homo sapiens, UniProt P51449); test: Fluorescence Polarization (FP) Assay; settings: Fluorescence Polarization (FP) Assay; values given as upper bounds of activity ranges; read-out: FP activity range
T1 construct: purchased Crelux (Planegg, Germany) batch no PC5032-1
T1 sequence (P51449 269-508 limits assumed): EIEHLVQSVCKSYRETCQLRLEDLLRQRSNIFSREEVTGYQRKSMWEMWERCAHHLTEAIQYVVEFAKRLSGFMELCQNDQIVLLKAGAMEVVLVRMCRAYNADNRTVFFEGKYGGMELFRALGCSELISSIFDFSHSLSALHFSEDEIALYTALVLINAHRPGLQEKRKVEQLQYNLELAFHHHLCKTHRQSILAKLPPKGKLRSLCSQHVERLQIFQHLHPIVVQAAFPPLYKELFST
Outline: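 In vitro FP binding assay monitoring ligand binding within the ligand binding pocket. Probe is a TAMRA-labelled RORγt ligand (MW 910 g/mole); DMSO served as negative control.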

Th17 cells = test: Th17 Assay (IL-17 levels in supernatants by ELISA); format: cell-based; settings: Homo sapiens; read-out: Th17 activity range @ 1 μM (% inhibition)
Protocol: The activity of the compounds was evaluated using a Fluorescence Polarization (FP) Assay and, in most cases, a Th17 Assay and/or RORγ Reporter assay (also referred to as Gal4 assay). The FP assay is an in vitro assay monitoring binding within the ligand binding pocket. The RORγ and the Th17 assays are both cell-based assays monitoring functional activity of the compound assayed.
Human peripheral blood mononuclear cells (PBMCs) were isolated from buffy coats of healthy human volunteers using the Ficoll paque PLUS kit (GE Healthcare, cat no 17-1440-02), as instructed by the manufacturer. Naive CD4+ T cells were isolated with Naive CD4+ T cell kit, human (Milteny Biotec, cat no 130-094-131). The following modifications were made to the manufacturer's protocol: 1) Incubation with Biotin-Antibody Cocktail and Anti-Biotin MicroBeads was prolonged to 30 minutes, and 2) Cells were washed with 40 mL of Miltenyi buffer. Differentiation of Th17 cells in anti-CD3 (BD Pharmingen, 5 μg/ml) coated 96-well plates (400,000 cells/well, 160 μl RPMI 1640+10% Fetal Bovine Serum) containing 5 μg/ml anti-CD28 (BD Pharmingen), 10 ng/ml IL-2 (R&D Systems), 2.5 ng/ml TGFβ-1 (R&D Systems), 20 ng/ml IL-1β (R&D Systems), 20 ng/ml IL-6 (R&D Systems), 30 ng/ml IL-23 (R&D Systems), 2.5 μg/ml anti-IL-4 (R&D Systems) and 1 μg/ml anti-IFNγ (R&D Systems) and with test compound during the entire differentiation (or vehicle, 0.1% DMSO for control). Test compounds were tested in triplicates, diluted 1000-fold in medium (final DMSO concentration is 0.1%). Incubated for seven days at 37° C., 5% CO2, 95% humidity, and 2-fluoro-4′-[[4-(4-pyridinylmethyl)-1-piperazinyl]methyl]-α,α-bis(trifluoromethyl)-[1,1′-biphenyl]-4-methanol (SR2211 Calbiochem, Cat. No. 557353) was used as positive control. As negative control, cells were differentiated into Th0 using 5 μg/ml anti-CD28 (BD Pharmingen), 10 ng/ml IL-2 (R&D Systems), 2 μg/ml anti-IL4 (R&D Systems) and 2 μg/ml anti-IFNγ (R&D Systems) are negative control. IL-17 levels in supernatants were measured with ELISA (R&D Systems).

[2] = molecular target: T2, yeast Gal4-DNA binding domain fused to the ligand binding domain of human RORγ (Homo sapiens, UniProt P51449); test: RORγ Reporter Assay (Gal4); format: cell-based; settings: values given as lower bounds of ranges; for Gal4 activity range @ 1 μM (% inhibition): RORγ Reporter Assay (Gal4) at 1 μM; for Gal4 activity range @ 0.1 μM (% inhibition): RORγ Reporter Assay (Gal4) at 0.1 μM
T2 construct: host or cells: HEK293t
T2 sequence (P51449 269-508 limits assumed): T1 sequence (P51449 269-508 limits assumed)
Outline: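 HEK293t reporter cells expressing the hybrid, with Gal4-UAS-driven firefly luciferase, treated in triplicate with compound at 1,000 nM and 100 nM (0.1% DMSO) in medium with 10% charcoal-stripped FBS for 24 h at 37 °C. Luminescence read; percent reduction of RLU calculated relative to vehicle.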

SMILES | IC50 [1] | inhibition at 1 µM (Th17 cells) | Gal4 activity range @ 1 μM (% inhibition) [2] | Gal4 activity range @ 0.1 μM (% inhibition) [2]
CC(C)(C)C[C@@H](Nc1ncnc(N2CCC[C@@H]2c2ccc(C(F)(F)F)cc2)c1F)C(N)=O (single isomer, unassigned) [Example 62, (2R)-2-[[5-fluoro-6-[(2R)-2-[4-(trifluoromethyl)phenyl]pyrrolidin-1-yl]pyrimidin-4-yl]amino]-4,4-dimethyl-pentanamide or (2R)-2-[[5-fluoro-6-[(2S)-2-[4-(trifluoromethyl)phenyl]pyrrolidin-1-yl]pyrimidin-4-yl]amino]-4,4-dimethyl-pentanamide] | < 500 nM | > 80% | >80 % inhibition | 
COc1ccc(C[C@H](CO)Nc2ncnc(N3CCCC3c3ccc(C(F)(F)F)cc3)c2F)cc1 (stereo partly drawn) [Example 29, (2R)-2-[[5-fluoro-6-[2-[4-(trifluoromethyl)phenyl]pyrrolidin-1-yl]pyrimidin-4-yl]amino]-3-(4-methoxyphenyl)propan-1-ol] | < 1000 nM | > 50% |  | 
CC(C)(C)C[C@H](CO)Nc1ncnc(N2CCCC2c2ccc(C(F)(F)F)cc2)c1F (stereo partly drawn) [Example 30, (2R)-2-[[5-fluoro-6-[2-[4-(trifluoromethyl)phenyl]pyrrolidin-1-yl]pyrimidin-4-yl]amino]-4,4-dimethyl-pentan-1-ol] | < 500 nM | > 50% | >80 % inhibition | 
CC(C)C[C@@H](Nc1ncnc(N2CC(C)CC2c2ccc(C(F)(F)F)cc2)c1F)C(=O)O (stereo partly drawn) [Example 33, (2R)-2-[[5-fluoro-6-[4-methyl-2-[4-(trifluoromethyl)phenyl]pyrrolidin-1-yl]pyrimidin-4-yl]amino]-4-methyl-pentanoic acid] | < 10000 nM | > 20% |  | 
CC(C)(C)C[C@@H](Nc1ncnc(N2CCCC2c2ccc(C(F)(F)F)cc2Cl)c1F)C(N)=O (stereo partly drawn) [Example 35, (2R)-2-[[6-[2-[2-chloro-4-(trifluoromethyl)phenyl]pyrrolidin-1-yl]-5-fluoro-pyrimidin-4-yl]amino]-4,4-dimethyl-pentanamide] | < 500 nM | > 50% |  | 
CC(C)(C)C[C@@H](Nc1ncnc(N2CCCC2c2ccc(C(F)(F)F)cc2Cl)c1F)C(=O)O (stereo partly drawn) [Example 36, (2R)-2-[[6-[2-[2-chloro-4-(trifluoromethyl)phenyl]pyrrolidin-1-yl]-5-fluoro-pyrimidin-4-yl]amino]-4,4-dimethyl-pentanoic acid] | < 2000 nM | > 50% |  | 
CC1CCN(c2ncnc(N[C@H](CC(C)(C)C)C(N)=O)c2F)C1c1ccc(C(F)(F)F)cc1 (stereo partly drawn) [Example 38, (2R)-2-[[5-fluoro-6-[3-methyl-2-[4-(trifluoromethyl)phenyl]pyrrolidin-1-yl]pyrimidin-4-yl]amino]-4,4-dimethyl-pentanamide] | < 2000 nM | > 50% |  | 
NC(=O)Cc1ccc(CNc2ncnc(N3CCCC3c3ccc(C(F)(F)F)cc3)c2F)cc1 (centres unmarked) [Example 40, 2-[4-[[[5-fluoro-6-[2-[4-(trifluoromethyl)phenyl]pyrrolidin-1-yl]pyrimidin-4-yl]amino]methyl]phenyl]acetamide] | < 1000 nM | > 80% |  | 
COc1ccc(Cn2ccc3c(N4CCCC4c4ccc(C(F)(F)F)cc4)ccnc32)cc1OC (centres unmarked) [Example 67, 1-[(3,4-dimethoxyphenyl)methyl]-4-[2-[4-(trifluoromethyl)phenyl]pyrrolidin-1-yl]pyrrolo[2,3-b]pyridine] | < 2000 nM | > 80% | >80 % inhibition | 
O=C(O)Cc1ccc(COc2ncnc(N3CCCC3c3ccc(C(F)(F)F)cc3)c2F)cc1 (centres unmarked) [Example 79, 2-[4-[[5-fluoro-6-[2-[4-(trifluoromethyl)phenyl]pyrrolidin-1-yl]pyrimidin-4-yl]oxymethyl]phenyl]acetic acid] | < 500 nM | > 50% | >50 % inhibition | 
O=C(O)Cc1ccc(CNc2ncnc(N3CCC[C@@H]3c3ccc(C(F)(F)F)cc3)c2F)cc1 [Example 81, 2-[4-[[[5-fluoro-6-[(2R)-2-[4-(trifluoromethyl)phenyl]pyrrolidin-1-yl]pyrimidin-4-yl]amino]methyl]phenyl]acetic acid] | < 500 nM | > 80% | >80 % inhibition | 
O=C(O)Cc1ccc(Cn2ccc3c(N4CCCC4c4ccc(C(F)(F)F)cc4)ncnc32)cc1 (centres unmarked) [Example 85, 2-[4-[[4-[2-[4-(trifluoromethyl)phenyl]pyrrolidin-1-yl]pyrrolo[2,3-d]pyrimidin-7-yl]methyl]phenyl]acetic acid] | < 500 nM | > 80% | >80 % inhibition | 
N#Cc1ccc(CNc2ncnc(N3CCCC3c3ccc(C(F)(F)F)cc3)c2F)cc1 (centres unmarked) [Example 88, 4-[[[5-fluoro-6-[2-[4-(trifluoromethyl)phenyl]pyrrolidin-1-yl]pyrimidin-4-yl]amino]methyl]benzonitrile] | < 500 nM | > 80% |  | 
Cc1ccc(CNc2ncnc(N3CCCC3c3ccc(C(F)(F)F)cc3)c2F)cn1 (centres unmarked) [Example 89, 5-fluoro-N-[(6-methyl-3-pyridyl)methyl]-6-[2-[4-(trifluoromethyl)phenyl]pyrrolidin-1-yl]pyrimidin-4-amine] | < 500 nM | > 20% | >80 % inhibition | >20 % inhibition
O=C(O)Cc1ccc(CNc2ncnc(N3CCOCC3c3ccc(OC(F)(F)F)cc3)c2F)cc1 (centres unmarked) [Example 91, 2-[4-[[[5-fluoro-6-[3-[4-(trifluoromethoxy)phenyl]morpholin-4-yl]pyrimidin-4-yl]amino]methyl]phenyl]acetic acid] | < 500 nM | > 80% | >80 % inhibition | >20 % inhibition
Fc1c(NCc2ccc(Cn3ccnc3)cc2)ncnc1N1CCCC1c1ccc(C(F)(F)F)cc1 (centres unmarked) [Example 94, 5-fluoro-N-[[4-(imidazol-1-ylmethyl)phenyl]methyl]-6-[2-[4-(trifluoromethyl)phenyl]pyrrolidin-1-yl]pyrimidin-4-amine] | < 500 nM | > 80% | >80 % inhibition | >80 % inhibition

Source: patent US10689383B2, “Optionally fused heterocyclyl-substituted derivatives of pyrimidine useful for the treatment of inflammatory, metabolic, oncologic and autoimmune diseases” (NUEVOLUTION A/S, priority 2014, dated 2020)
